The results in this text go back to article PMC9394549 (Nature, 2022).

The target in the test is T1, GAT2 (Homo sapiens, UniProt Q9NSD5).
T1 sequence (Q9NSD5 1-602): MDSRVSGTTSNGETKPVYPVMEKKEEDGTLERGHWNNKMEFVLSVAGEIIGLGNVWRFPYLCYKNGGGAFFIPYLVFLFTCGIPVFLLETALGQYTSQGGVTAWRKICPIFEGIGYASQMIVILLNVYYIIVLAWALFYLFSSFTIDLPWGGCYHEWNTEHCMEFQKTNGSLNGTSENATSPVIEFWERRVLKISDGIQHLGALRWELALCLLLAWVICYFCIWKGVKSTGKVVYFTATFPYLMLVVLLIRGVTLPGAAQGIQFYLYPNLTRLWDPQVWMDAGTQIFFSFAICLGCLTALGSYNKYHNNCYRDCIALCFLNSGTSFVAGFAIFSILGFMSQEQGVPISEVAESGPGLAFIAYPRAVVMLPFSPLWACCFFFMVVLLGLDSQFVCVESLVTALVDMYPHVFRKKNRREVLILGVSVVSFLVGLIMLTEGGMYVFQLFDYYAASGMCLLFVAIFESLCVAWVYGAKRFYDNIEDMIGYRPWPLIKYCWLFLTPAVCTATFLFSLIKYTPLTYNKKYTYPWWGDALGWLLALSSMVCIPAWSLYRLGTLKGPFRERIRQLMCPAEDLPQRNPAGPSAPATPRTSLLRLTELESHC
The test can be described thus: [3H]-GABA uptake in transfected HEK293S GnTI− cells. Type of test: cell-based.

For the molecule `NCCCC(=O)O` [GABA], the “[3H]-GABA uptake in transfected HEK293S GnTI- cells” value was “Specific uptake of [^3H]-GABA in HEK293S cells expressing wild-type GAT1, wild-type GAT2”.
